Measured values reported in patent EP4458352A1, “EICOSAPENTAENOIC ACID ESTER DERIVATIVES FOR THE TREATMENT OF OBESITY” (Technische Universität Dresden, priority 2023, dated 2024).

Key:
NCI-H295R cells = experiment: Cholesterol and cholesteryl ester content (LC-MS/MS) of mitochondrial and lipid droplet fractions of NCI-H295R cells treated with SC-26196; format: cell-based, Human
Procedure: NCI-H295R cells (obtained from ATCC Cat# CRL-2128) were maintained in DMEM/F12 medium supplemented with 2.5 % Nu-Serum type I (Corning), 1 % Insulin Transferrin Selenium (ITS; Gibco), 50 U/mL penicillin and 50 µg/mL streptomycin. They were treated for 18 h with 10 µM SC-26196 or DMSO. […]
Cells were trypsinized and pelleted by centrifugation (500xg, 5 min, 4 °C). The cells were gently resuspended in homogenization buffer (200 mM mannitol, 50 mM sucrose, 10 mM KCI, […] 25 mM HEPES, pH 7.4, 1 µM aprotinin, 10 µM leupeptin, 20 µM PMSF) and homogenized on ice with 20 strokes of tight Dounce homogenizer. The samples were then centrifuged (800xg, 10 min, 4 °C) to pellet the nuclei. […]
Fractions 10-12 (SDHB-positive) and 4-5 (HSL-positive) were considered as mitochondrial and lipid droplet fractions, respectively. Protein concentration was measured in the mitochondrial and lipid droplet pools with the BCA Protein Assay Kit (Thermo Fisher) and fractions were analyzed for cholesterol and CE concentrations.
For quantification of cholesterol and cholesteryl esters, equal volumes of mitochondria fractions (180 µL) were combined, cholesterol-2,3,4-^13C (5 nmol, […]) and SPLASH®Lipidomix® (3 µL, Avanti Polar Lipids Inc) spiked, and samples incubated for 15 min on ice. […]

[1] = tested on: StAR, Cyp11a1, 3β-Hsd2, Cyp11b1, Cyp11b2; experiment: mRNA expression of StAR and steroidogenic enzymes upon FADS2 inhibition (qPCR); format: cell-based; details: upon FADS2 inhibition (SC-26196)
Procedure: Adrenal glands or adrenal corteces were isolated from WT C57BL/6J mice, cleaned from the surrounding fat tissue and incubated in collagenase buffer (1.6 mg/ml collagenase type I, 1.6 mg/ml BSA) for 45 min at 37 °C, while shaking at 900 rpm. Dissociated cells were passed through 22 G needle and a 100 µm cell strainer and centrifuged at 300 × g for 5 min at 4 °C. Cells of a pool from two adrenals of each mouse were distributed in four 0.2 % gelatin-precoated wells of a 96-well plate in DMEM/F12 supplemented with 1 % FBS, 50 U/mL penicillin and 50 µg/mL streptomycin. Two hours after seeding 10 µM SC-26196 (Tocris, Wiesbaden-Nordenstadt, Germany) or same amount of carrier (DMSO) were added without changing the medium. In some experiments medium was additionally supplemented with 150 µM ARA (Sigma Aldrich, Germany) or same amount of solvent (endotoxin-free water). […]
RNA was isolated from frozen tissues with the TRI Reagent (MRC, Cincinnati, USA) after mechanical tissue disruption or from cells with the RNeasy Mini Kit (Qiagen, Düsseldorf, Germany) according to manufacturer's instructions. […] Reverse transcription was performed with the iScript cDNA Synthesis kit (Biorad, Munich, Germany) and cDNA was analyzed by qPCR using the SsoFast Eva Green Supermix (Bio-Rad, Munich, Germany), a CFX384 real-time System C1000 Thermal Cycler (Bio-Rad) and the Bio-Rad CFX Manager 3.1 software.

- mRNA expression of StAR or steroidogenic enzymes (Cyp11a1, 3β-Hsd2, Cyp11b1, Cyp11b2) [1]: increased
Compound: N#CC(CCCN1CCN(/N=C/c2cccnc2)CC1)(c1ccccc1)c1ccccc1 [SC-26196]
- mitochondrial cholesterol levels upon forskolin stimulation (NCI-H295R cells; SC-26196 18 h vs DMSO, forskolin (FSK, 1 µM) for 30 min, SDHB positive fractions): strong increase in mitochondrial cholesterol levels in control- but not SC-26196-treated cells
- cholesterol and CE in the lipid droplet (HSL positive) fractions (NCI-H295R cells; SC-26196-treated cells): accumulated
